We go through five compounds from patent US11981617B2, “Ketamine pamoate and use thereof” (Alar Pharmaceuticals Inc., priority 2019, dated 2024).

Series [1] has as its system DEX-treated mice. Kind of series: Forced swimming test (FST) in DEX-induced depression-like animal model. It is filed as in vivo, ICR mice. To be noted: 120 mg/kg of ketamine free-base; for onset of antidepressant effect on FST: single injection; for immobility time in FST: single s.c. injection. As to the method: (§1) ICR mice were intraperitoneally injected with saline or DEX at postnatal day 1 to 3 (P1-P3) with dose decrement of 0.5 mg/kg, 0.3 mg/kg, and 0.1 mg/kg, respectively. The drugs for each group or saline were administered subcutaneously at postnatal day 35, P35 (i.e., dosing day 0, D0), and forced swimming test (FST) was conducted on dosing day 1 (D1, P36) and dosing day 10 (P45) after drug administration. Evaluation of sedation behavior was also conducted by sedation rating scale from the time immediately post injection to dosing day 14 (P49) after drug administration.
(§2) Neonatal ICR mice (BioLASCO, Taipei, Taiwan) were intraperitoneally injected with saline or DEX on postnatal day 1, 2, and 3 (P1, P2, and P3) at doses of 0.5 mg/kg, 0.3 mg/kg, and 0.1 mg/kg, respectively. […] The dugs were then subcutaneously injected into mice of the corresponding groups at postnatal day 35, while the mice of the Control and Saline groups were injected with equal volumes of 0.9% saline. Drugs for administration were prepared in phosphate-buffered saline (PBS), and then well mixed by high speed vortex before injection.
Antidepressant effects were evaluated by forced swimming test (FST), which performed on dosing day 1 (P36) and dosing day 10 (P45) after drug administration. The mice of all groups were trained for swimming before drug administration. During the FST, mice were individually placed into 5 L glass cylinders (height 27 cm, diameter 18 cm) filled with 4 L of water (23±1° C.). The total duration of immobility time during 5 minutes of FST was observed. Results were presented as mean±SEM. Student's t-test was utilized to analyze Saline group (DEX-treated mouse group injected with saline) versus the other groups at each time point. * p<0.05, ** p<0.01, and *** p<0.001 indicate significant differences compared to the Saline group.

Series [2] relates to DEX-treated mice. Kind of series: Sedation behavior by rodent sedation rating scale. It is filed as in vivo, ICR mice. To be noted: s.c., 120 mg/kg of ketamine free-base; for sedation behavior (rodent sedation rating scale): immediately post injection to 14 days. As to the method: as §1, §2
Furthermore, sedation behavior was also evaluated by rodent sedation rating scale (Table 6) immediately post drug administration to 14 days.

Series [3] relates to female Sprague Dawley (SD) rats. Kind of series: 3-month repeat-dose toxicology study. As to conditions: for neuronal morphology in prefrontal cortex / bladder mucosal folds (histopathology) / bladder apical epithelial surfaces (histopathology): total 1440 mg/kg of ketamine free-base; for neuronal morphology in prefrontal cortex: brain slices; for bladder mucosal folds (histopathology): magnification x40; for bladder apical epithelial surfaces (histopathology): magnification x400; for injection site observation (skin surface) / injection site histopathology: inflammatory cells at higher magnification / injection site histopathology: tissue morphology: KET 60 mg/kg twice weekly, KEP 480 mg/kg monthly; for injection site histopathology: inflammatory cells at higher magnification / injection site histopathology: tissue morphology: HE staining.

The conditions of series [4]: in vivo; cited from earlier work.
In the next series the test system is beagle dogs. Kind of series: Injection site evaluation by Draize skin erythema/eschar rating scale. Format: in vivo. As to conditions: male beagle dogs, individual animals, single 44 mg/kg of ketamine free-base, Day 1, 2, 4, 8, 15. As to the method: A specific in vivo study to evaluate the injection site reaction of KEP was conducted in beagle dogs ([…] LABES, CO., LTD. Ina, Japan).

Structures can show the parent of a compound that is named as a salt.

`CNC1(c2ccccc2Cl)CCCCC1=O` (centres unmarked) [KET, ketamine HCl, reference compound]: the “onset of antidepressant effect on FST” value in the series with DEX-treated mice [1] is “rapid-onset antidepressant effects”. Moreover, the “immobility time in FST” value in the series with DEX-treated mice [1] (day 1 after administration) is “reduced the immobility times”. Further, the “immobility time in FST” value with DEX-treated mice [1] (day 10 after administration) is reported as “reduced the immobility times”. The “sedation behavior (rodent sedation rating scale)” value (shortened to “sedation behavior”) with DEX-treated mice [2] is on record as “heavy sedation-related behavior”. Also, the “time to full recovery from sedation” value with DEX-treated mice [2] (post administration) is 2 h. Further, in series [3] (12 weeks), the “neuronal morphology in prefrontal cortex” value was “granule cells were lack, and the morphology of pyramidal cells changed to be small or shrinking like in process of degradation”; the “bladder mucosal folds (histopathology)” value is “protrusive and enlarged mucosal folds”; the “bladder apical epithelial surfaces (histopathology)” value is “smooth”. Also, the “pathological bladder and brain changes” value in series [3] (high dose subchronic treatment for 12 weeks) was “bladder fibrosis and neuronal morphology alteration in brain”. Further, in series [3] (s.c., 12 weeks), the “injection site observation (skin surface)” value is given as “injection site erythema, which gradually became open wound”; the “injection site histopathology: inflammatory cells at higher magnification” value is listed as “infiltration of inflammatory cells in connective tissues”; the “injection site histopathology: tissue morphology” value is “morphology damage on epidermis, dermis, subcutis, and muscle tissues”. Further, the “maximum tolerated dose (MTD)” value in series [3] (subcutaneous injection) is recorded as 60 mg/kg of ketamine free-base.

`CN[C@@]1(c2ccccc2Cl)CCCCC1=O` [R-KEP, R-ketamine pamoate]: the “onset of antidepressant effect on FST” value in the series on DEX-treated mice [1] was “rapid-onset antidepressant effects”. The “immobility time in FST” value in the series with DEX-treated mice [1] (day 1 after administration) and in the series with DEX-treated mice [1] (day 10 after administration) was “reduced the immobility times” throughout. Also, in the series on DEX-treated mice [2], the “sedation behavior” value is “normal behavior”.

As to `CN[C@]1(c2ccccc2Cl)CCCCC1=O` [S-KEP, S-ketamine pamoate], the “onset of antidepressant effect on FST” value in the series with DEX-treated mice [1] is “rapid-onset antidepressant effects”. For the same compound, the “immobility time in FST” value in the series with DEX-treated mice [1] (day 1 after administration) and in the series on DEX-treated mice [1] (day 10 after administration) was “reduced the immobility times” in each case. Moreover, the “sedation behavior” value with DEX-treated mice [2] is recorded as “normal behavior”.

On to `CNC1(c2ccccc2Cl)CCCCC1=O` (centres unmarked) [ketamine], for which the LD50 dose in series [4] was 229 mg/kg.

As to R, S-ketamine pamoate [KEP], the “onset of antidepressant effect on FST” value with DEX-treated mice [1] is on record as “rapid-onset antidepressant effects”. In addition, in the series with DEX-treated mice [1] (day 1 after administration), the “immobility time in FST” value is “reduced the immobility times”. Further, the “immobility time in FST” value in the series with DEX-treated mice [1] (day 10 after administration) was “reduced the immobility times”. Also, the “sedation behavior” value with DEX-treated mice [2] is recorded as “normal behavior”. Also, the “Draize skin erythema/eschar observation at injection site” value in the series with beagle dogs is “No erythema”. Also, the “tolerability of single subcutaneous injection” value in series [3] (480 mg/kg of ketamine free-base) is given as “well tolerable”. Further, in series [3] (12 weeks), the “neuronal morphology in prefrontal cortex” value is “normal”, the “bladder mucosal folds (histopathology)” value is on record as “thin mucosal folds” and the “bladder apical epithelial surfaces (histopathology)” value is recorded as “rough”. Moreover, in series [3] (s.c., 12 weeks, KEP 480 mg/kg monthly versus KET 60 mg/kg twice weekly), the “density of inflammatory cells at injection site under microscopic fields” value is reported as “much less than KET group”. Also, in series [3] (s.c., 12 weeks), the “injection site observation (skin surface)” value was “normal skin surfaces”, the “injection site histopathology: inflammatory cells at higher magnification” value is on record as “infiltration of inflammatory cells in connective tissues” and the “injection site histopathology: tissue morphology” value is given as “normal morphology of skin slices”.
